Measurements: publication PMC6792352, “Limited Chemical Structural Diversity Found to Modulate Thyroid Hormone Receptor in the Tox21 Chemical Library” (Environmental Health Perspectives, 2019)
Counter-ions that a name gives are not always drawn.

Assay: in vitro
Conditions: rat, gh3-tre-luc cells

`CCCCCCCCCCCC[n+]1ccc2ccccc2c1` [2-Dodecylisoquinolinium tosylate] showed a CC50 at 24 h (AC50 (uM) modified / 1000) of 5.61 µM.
Compound `CCOc1ccccc1N` [2-Ethoxyaniline] has a CC50 at 24 h (AC50 (uM) modified / 1000) greater than 90 µM.
For `CCOc1ccccc1C(N)=O` [2-Ethoxybenzamide], the CC50 at 24 h (AC50 (uM) modified / 1000) was greater than 90 µM.
For `CCOCCO` [2-Ethoxyethanol], the CC50 at 24 h (AC50 (uM) modified / 1000) was greater than 90 µM.
In the case of `CCOCCOC(C)=O` [2-Ethoxyethyl acetate], the CC50 at 24 h (AC50 (uM) modified / 1000) is reported as greater than 90 µM.
With `C=C(C)C(=O)OCCOCC` [2-Ethoxyethyl methacrylate] the CC50 at 24 h (AC50 (uM) modified / 1000) was greater than 90 µM.
In the case of `CCOc1ccccc1O` [2-Ethoxyphenol], the CC50 at 24 h (AC50 (uM) modified / 1000) is reported as greater than 90 µM.
In the case of `CCCC(O)C(CC)CO` (stereo not drawn) [2-Ethyl-1,3-hexanediol], the CC50 at 24 h (AC50 (uM) modified / 1000) is reported as greater than 90 µM.
`CCC(CC)CO` [2-Ethyl-1-butanol] showed a CC50 at 24 h (AC50 (uM) modified / 1000) greater than 90 µM.
`CCCCC(CC)CO` (stereo not drawn) [2-Ethyl-1-hexanol] gave a CC50 at 24 h (AC50 (uM) modified / 1000) greater than 90 µM.
`CCC(CO)(CO)CO` [2-Ethyl-2-(hydroxymethyl)-1,3-propanediol] gave a CC50 at 24 h (AC50 (uM) modified / 1000) greater than 100 µM.
For `CCC/C=C(/C=O)CC` [2-Ethyl-2-hexenal], the CC50 at 24 h (AC50 (uM) modified / 1000) was greater than 90 µM.
Work on `CCC(CO)(CO)[N+](=O)[O-]` [2-Ethyl-2-nitro-1,3-propanediol] yielded a CC50 at 24 h (AC50 (uM) modified / 1000) greater than 90 µM.
Work on `CCc1occc(=O)c1O` [2-Ethyl-3-hydroxy-4H-pyran-4-one] yielded a CC50 at 24 h (AC50 (uM) modified / 1000) greater than 90 µM.
Work on `CCc1nc(C)c[nH]1` [2-Ethyl-4-methyl-1H-imidazole] yielded a CC50 at 24 h (AC50 (uM) modified / 1000) greater than 90 µM.
`CCc1cccc(C)c1N` [2-Ethyl-6-methylaniline] showed a CC50 at 24 h (AC50 (uM) modified / 1000) greater than 90 µM.
Compound `CCc1ccccc1N` [2-Ethylaniline] has a CC50 at 24 h (AC50 (uM) modified / 1000) greater than 90 µM.
Work on `CCc1ccc2c(c1)C(=O)c1ccccc1C2=O` [2-Ethylanthraquinone] yielded a CC50 at 24 h (AC50 (uM) modified / 1000) greater than 90 µM.
Work on `CCC(C=O)CC` [2-Ethylbutyraldehyde] yielded a CC50 at 24 h (AC50 (uM) modified / 1000) greater than 90 µM.
Work on `CCC(CC)C(=O)O` [2-Ethylbutyric acid] yielded a CC50 at 24 h (AC50 (uM) modified / 1000) greater than 90 µM.
Work on `CCCCC(C=O)CC` (stereo not drawn) [2-Ethylhexanal] yielded a CC50 at 24 h (AC50 (uM) modified / 1000) greater than 90 µM.
Work on `CCCCC(CC)C(=O)Cl` (stereo not drawn) [2-Ethylhexanoyl chloride] yielded a CC50 at 24 h (AC50 (uM) modified / 1000) greater than 90 µM.
For `CCCCC(CC)COC(=O)c1ccc(N(C)C)cc1` (stereo not drawn) [2-Ethylhexyl 4-(dimethylamino)benzoate], the CC50 at 24 h (AC50 (uM) modified / 1000) was greater than 90 µM.
With `CCCCC(CC)COC(C)=O` (stereo not drawn) [2-Ethylhexyl acetate] the CC50 at 24 h (AC50 (uM) modified / 1000) was greater than 90 µM.
Compound `C=CC(=O)OCC(CC)CCCC` (stereo not drawn) [2-Ethylhexyl acrylate] has a CC50 at 24 h (AC50 (uM) modified / 1000) greater than 90 µM.
In the case of `CCCCC(CC)COC(=O)c1ccccc1` (stereo not drawn) [2-Ethylhexyl benzoate], the CC50 at 24 h (AC50 (uM) modified / 1000) is reported as greater than 90 µM.
For `CCCCC(CC)COC(=O)Cl` (stereo not drawn) [2-Ethylhexyl chloroformate], the CC50 at 24 h (AC50 (uM) modified / 1000, Tox21_110001=Tox21_201491, viability, 1 nM T3 present, 24 h) was greater than 90 µM.
For `CCCCC(CC)COC(=O)CC#N` (stereo not drawn) [2-Ethylhexyl cyanoacetate], the CC50 at 24 h (AC50 (uM) modified / 1000) was greater than 90 µM.
With `CCCCC(CC)COP(=O)(Oc1ccccc1)Oc1ccccc1` (stereo not drawn) [2-Ethylhexyl diphenyl phosphate] the CC50 at 24 h (AC50 (uM) modified / 1000, Tox21_110001=Tox21_303313, viability, 1 nM T3 present, 24 h) was greater than 90 µM.
In the case of `CCCCC(CC)COCC1CO1` (stereo not drawn) [2-Ethylhexyl glycidyl ether], the CC50 at 24 h (AC50 (uM) modified / 1000) is reported as greater than 90 µM.
Work on `C=C(C)C(=O)OCC(CC)CCCC` (stereo not drawn) [2-Ethylhexyl methacrylate] yielded a CC50 at 24 h (AC50 (uM) modified / 1000) greater than 90 µM.
In the case of `CCCCCCCCCCCCCCCCCC(=O)OCC(CC)CCCC` (stereo not drawn) [2-Ethylhexyl octadecanoate], the CC50 at 24 h (AC50 (uM) modified / 1000) is reported as greater than 90 µM.
In the case of `CCCCC(CC)COC(=O)c1ccccc1O` (stereo not drawn) [2-Ethylhexyl salicylate], the CC50 at 24 h (AC50 (uM) modified / 1000) is reported as greater than 50 µM.
`CCCCC(CC)COC(=O)CS` (stereo not drawn) [2-Ethylhexyl sulfanylacetate] gave a CC50 at 24 h (AC50 (uM) modified / 1000) greater than 90 µM.
With `CCCCC(CC)COC(=O)/C=C/c1ccc(OC)cc1` (stereo not drawn) [2-Ethylhexyl trans-4-methoxycinnamate] the CC50 at 24 h (AC50 (uM) modified / 1000) was greater than 90 µM.
For `CCCCC(CC)COC(=O)C(C#N)=C(c1ccccc1)c1ccccc1` (stereo not drawn) [2-Ethylhexyl-2-cyano-3,3-diphenylacrylate], the CC50 at 24 h (AC50 (uM) modified / 1000) was greater than 90 µM.
With `CCCCC(CC)CN` (stereo not drawn) [2-Ethylhexylamine] the CC50 at 24 h (AC50 (uM) modified / 1000) was greater than 90 µM.
With `CCc1ccccc1O` [2-Ethylphenol] the CC50 at 24 h (AC50 (uM) modified / 1000) was greater than 90 µM.
`CCC(CO)CO` [2-Ethylpropane-1,3-diol] gave a CC50 at 24 h (AC50 (uM) modified / 1000) greater than 90 µM.
`NC(=O)CF` [2-Fluoroacetamide] showed a CC50 at 24 h (AC50 (uM) modified / 1000, Tox21_110001=Tox21_301297, viability, 1 nM T3 present, 24 h) greater than 90 µM.
Compound `O=C(Cl)c1ccccc1F` [2-Fluorobenzoyl chloride] has a CC50 at 24 h (AC50 (uM) modified / 1000) greater than 90 µM.
Compound `Fc1ccccc1-c1ccccc1` [2-Fluorobiphenyl] has a CC50 at 24 h (AC50 (uM) modified / 1000) greater than 90 µM.
For `Oc1ccccc1F` [2-Fluorophenol], the CC50 at 24 h (AC50 (uM) modified / 1000) was greater than 90 µM.
In the case of `O=C(O)c1ccco1` [2-Furancarboxylic acid], the CC50 at 24 h (AC50 (uM) modified / 1000) is reported as greater than 90 µM.
In the case of `CCCCCC(C)O` (stereo not drawn) [2-Heptanol], the CC50 at 24 h (AC50 (uM) modified / 1000) is reported as greater than 90 µM.
`CCCCCC(C)=O` [2-Heptanone] gave a CC50 at 24 h (AC50 (uM) modified / 1000) greater than 90 µM.
Work on `CCCCCCCC1CCCC1=O` (stereo not drawn) [2-Heptylcyclopentanone] yielded a CC50 at 24 h (AC50 (uM) modified / 1000) greater than 90 µM.
`CCCCCCCCC(CO)CCCCCC` (stereo not drawn) [2-Hexyl-1-decanol] showed a CC50 at 24 h (AC50 (uM) modified / 1000) greater than 90 µM.
